In brackets after ≈: the same amount, converted by molar mass. Read-outs that look alike come from different tables or passages of the source.
How the values were obtained:
MRSA ATCC BAA-44 [1] = test: Minimum resensitizing concentration (MRC), modified broth microdilution; format: cell-based, S. aureus
Description: (§1) For these activity tests, AMOXICILLIN® was used in combination with clavulanic acid (a.k.a., AUGMENTIN®), CEFAZOLIN®, and MEROPENEM® (an ultra-broad-spectrum carbapenem). […] To assess activity of each analog as a resistance-modifying agent (RMA), a modified broth microdilution assay was used. Briefly, this involves incubating MRSA with 2-fold serial dilutions of a compound in the presence of each individual antibiotic at its Clinical Laboratory Standards Institutes (CLSI)-defined sensitive concentration. For AMOXICILLIN®/clavulanic acid, this concentration is 4/2 μg/ml (8-fold potentiation), for CEFAZOLIN®, 8 μg/ml (16-fold potentiation) and for MEROPENEM®, 4 μg/ml (4-fold potentiation). Following overnight incubation, plates were examined for bacterial growth, or lack thereof. Compounds were tested at concentrations ranging from 0.5-32 μg/ml. […] The half growth inhibitory concentration (GI50) of each analog was determined by fitting the data using KaleidaGraph (v4.1.1, Synergy Software).
(§2) A modified broth microdilution assay was employed by incubating MRSA (ATCC: BAA-44) with Of1 in 2-fold series dilution in the presence of individual antibiotics at the highest sensitive concentration at 37° C. overnight. […] The MRC values were also determined for another three MRSA strains. […] Furthermore, the mammalian toxicity of Of1 was evaluated using human liver hepatocellular carcinoma HepG2 cell line in CellTiter Glo™ mammalian viability assay (Promega).
(§3) MRC screens were performed as follows: antibiotic MIC values where S. aureus is considered susceptible were determined from the CLSI handbook supplement. Analogs of Of1 were diluted to 5 mg/ml in DMSO. Antibiotic was prepared at twice the intended final concentration in Mueller Hinton Broth (MHB). For amoxicillin/clavulanic acid, the initial concentration was 8/4 μg/ml, for meropenem 8 μg/ml and for cefazolin 16 μg/ml. 50 μl of the antibiotic containing media was added to each well of 96 well plates and 100 μl was added to the top row. 1.28 μl of 5 mg/ml alkaloid solution was added to the top row of each plate to afford a concentration of 64 μg/ml in the top row of each plate and two fold serial dilutions were performed down the columns. Once the plates were prepared, a day culture of MRSA was diluted to OD600 0.002 and 50 μl was added to each well. The final concentration of MRSA was OD600 0.001, the final concentration of amoxicillin/clavulanic acid was 4/2 μg/ml, the final concentration of meropenem was 4 μg/ml the final concentration of cefazolin was 8 μg/ml, and the highest concentration of Of1 analog tested was 32 μg/ml. Plates were incubated overnight at 37° C. with shaking. The MRC value was determined as the concentration of Of1 analog in the presence of antibiotic at which there was no observable overnight growth.

MRSA ATCC 33592 [2] = test: as above; format: cell-based, S. aureus
Description: as §1, §2, §3

HeLa cells = test: Mammalian cytotoxicity, CellTiter-Glo viability assay; format: cell-based, human; conditions: 24 hours
Description: To evaluate the cytotoxicity of Of1 in mammalian cells, a cell viability assay was carried out using CellTiter-Glo luminescent cell viability assay kit (Promega). Human cervixcal adenocarcinoma HeLa cells were seeded on white, cell-culture treated 96-well plates (Corning: 3917) with Dulbecco's modified Eagle's medium (DMEM) supplemented with 10% fetal calf serum (FCS), 1% penicillin/streptomycin, at the densities of 20,000 cells/well. The medium volume for each well was 100 μL. Cells were incubated at 37° C. in 5% CO2/95% air for 16 hours. The medium was removed from each well and replaced with 99 μL of warmed fresh medium. To each well, 1 μL of Of1 analog was added in DMSO to final concentrations of 0.5-32 μg/mL. Each series was performed in triplicate. After incubation at 37° C. for another 24 hours, the plates were equilibrated to room temperature for 30 minutes. 100 μL of CellTiter-Glo reagent (Promega) was added to each well and mixed for 2 minutes on an orbital shaker. The plate was incubated at room temperature for another 10 minutes to stabilize luminescent signal. The luminescence of each sample was recorded in an Envision Multilabel Plate Reader (Perkin Elmer).

MRSA ATCC BAA-44 [3] = test: MIC in the presence of 20 μM Of1 / alkaloid; format: cell-based, S. aureus
Description: (§4) Indoline alkaloid compounds were then screened for the ability to potentiate the activity of methicillin against MRSA. A multi-drug resistant MRSA strain (ATCC: BAA-44) was selected for the initial screening. […] To each well, 20 μM of each individual indoline alkaloid was added and the plates were incubated at 37° C. for 16 hrs.
(§5) The MRSA strain ATCC BAA-44 and the methicillin-sensitive S. aureus (MSSA) strain ATCC 25923 were used to determine the MIC values of various antimicrobial compounds in the presence of 20 μM Of1. The experiment was conducted similarly to the CLSI MIC determination described previously; however, MHB was supplemented with 40 μM Of1 prior to set up and inoculation. The final concentration of Of1 after inoculation with BAA-44 was 20 μM.

MRSA ATCC BAA-1683 = test: Minimum resensitizing concentration (MRC); format: cell-based, S. aureus
Description: (§6) A modified broth microdilution assay was employed by incubating MRSA (ATCC: BAA-44) with Of1 in 2-fold series dilution in the presence of individual antibiotics at the highest sensitive concentration at 37° C. overnight. […] This is probably due to both the different sensitive concentration defined for each antibiotic and the different level of resistance of MRSA to various antibiotics. The MRC values were also determined for another three MRSA strains. The strain 33592 (ATCC) behaves similarly to BAA-44, and their MRCs for the three antibiotics tested are all 4 μg/mL. […] ATCC 700789 is particularly interesting, because it is also known as a vancomycin intermediate resistant S. aureus (VISA). […] Furthermore, the mammalian toxicity of Of1 was evaluated using human liver hepatocellular carcinoma HepG2 cell line in CellTiter Glo™ mammalian viability assay (Promega).

MRSA ATCC BAA-44 [4] = test: MIC, CLSI broth microdilution; format: cell-based, S. aureus; conditions: MRSA ATCC BAA-44, compound alone
[5] = system: ATCC 700789 (vancomycin intermediate resistant S. aureus, VISA); test: Minimum resensitizing concentration (MRC); format: cell-based
Description: as §6

[6] = Mammalian toxicity, CellTiter Glo viability assay; format: cell-based, human; conditions: human, HepG2 cells
Description: as §6

HepG2 cells = test: Mammalian toxicity, CellTiter Glo viability assay; format: cell-based, human; conditions: at 4 μg/mL
Description: as §6

[7] = system: MSSA strain (ATCC: 25923); test: Potentiation of β-lactam antibiotics by 20 μM Of1 in MSSA; format: cell-based, S. aureus; conditions: MSSA ATCC 25923
Description: Taken together, it appears that Of1 is a resistance-modifying agent specifically for β-lactam antibiotics.
as §5

[8] = system: methicillin-sensitive S. aureus (MSSA, ATCC: 25923); test: MIC, CLSI broth microdilution; format: cell-based; conditions: Staphylococcus aureus; MSSA ATCC 25923, compound alone
Description: as §4
All antimicrobial compounds were purchased from Sigma-Aldrich. The growth media used for all MIC experiments was Mueller Hinton Broth (MHB) purchased from HIMEDIA through VWR (cat: 95039-356). The inoculum was prepared by diluting a bacterial day culture (OD600 0.15-0.4) to OD600 0.002. This dilution was further diluted two fold when added to 96 well microplates (USA Scientific CytoOne 96-well TC plate, cat: CC7682-7596) for a final inoculum concentration of OD600 0.001. All plates were incubated at 37° C. with shaking for 18 hours (overnight) before results were interpreted.

MRSA ATCC 33592 [9] = test: MIC, broth microdilution; format: cell-based, S. aureus; conditions: Staphylococcus aureus
Description: as §1, with “Activities listed in the table show the ability of the compounds of the invention to resensitize MRSA to a collection of β-lactam antibiotics. For these” for “For these”, “Synergy Software). Compounds 1a-1 are synthesized as shown in Scheme 1 below.” for “Synergy Software).”
The minimal inhibitory concentrations (MICs) of active Of1 analogs were determined by the broth microdilution method detailed in the Clinical and Laboratory Standards Institute handbook. […]

[10] = Staphylococcus aureus, read-out: MIC

Molecule: 2-(6-Bromo-4-methylidene-2,3,4,4a,9,9a-hexahydro-1H-carbazol-4a-yl)-N-(4-chlorobenzenesulfonyl)-S-(4-chlorophenyl)ethane-1-sulfonamido [Cpd 1h]
- MRC amox/clav (MRSA ATCC BAA-44 [1]; MRSA ATCC BAA-44, amoxicillin/clavulanic acid at 4/2 μg/ml): >32 µg/mL
- MRC cefazolin (MRSA ATCC BAA-44 [1]; MRSA ATCC BAA-44, cefazolin at 8 μg/ml): >32 µg/mL
- MRC methicillin (MRSA ATCC BAA-44 [1]; MRSA ATCC BAA-44, in presence of methicillin): >32 µg/mL
- MRC meropenem (MRSA ATCC 33592 [2]; MRSA ATCC 33592, meropenem at 4 μg/ml): >32 µg/mL

Molecule: C=C1CCC[C@@H]2Nc3c(F)cc(Br)cc3[C@]12CCN (stereo in doubt) [Cpd 11b, 2-(6-Bromo-8-fluoro-4-methylidene-2,3,4,4a,9,9a-hexahydro-1H-carbazol-4a-yl)ethan-1-amine]
- GI50 (HeLa cells): 16.2 µg/mL (≈ 49.8 µM)

Molecule: C=C1CCC[C@@H]2Nc3ccc(Br)cc3[C@]12CCNS(=O)(=O)c1ccc(Cl)cc1 (stereo in doubt) [Of1, N-(2-(6-Bromo-4-methylene-2,3,4,4a,9,9a-hexahydro-1H-carbazol-4a-yl)ethyl)-4-chlorobenzenesulfonamide]
- fold potentiation of methicillin (MRSA ATCC BAA-44 [3]; 20 μM (ca. 10 μg/mL) Of1, MRSA BAA-44): 16 fold
- fold potentiation of all β-lactam antibiotics (MRSA ATCC BAA-44 [3]; 20 μM Of1, MRSA BAA-44): 8-128 fold
- fold potentiation of meropenem (MRSA ATCC BAA-44 [3]; 20 μM Of1, MRSA BAA-44): 16 fold
- MIC of methicillin in media supplemented with 20 μM alkaloid (MRSA ATCC BAA-44 [3]; MRSA ATCC BAA-44, methicillin MIC alone 128): 8 µg/mL
- MRC of Of1, amoxicillin/clavulanate (MRSA ATCC BAA-1683): 4 µg/mL
- MRC of Of1, oxacillin (MRSA ATCC BAA-1683; 32 μg/mL highest concentration tested): >32 µg/mL
- MIC (MRSA ATCC BAA-44 [4]): > 128 µg/mL
- MIC (MRSA ATCC BAA-44 [4]; [10]): > 128 µg/mL
- MRC of Of1, oxacillin ([5]; ATCC 700789): >64 µg/mL
- MRC of Of1, amoxicillin/clavulanate ([5]; ATCC 700789 (VISA)): 4 µg/mL
- MRC of Of1, oxacillin (MRSA ATCC BAA-44 [1]; ATCC BAA-44, oxacillin at highest sensitive concentration): 2 µg/mL
- MRC of Of1, amoxicillin/clavulanate (MRSA ATCC 33592 [2]; ATCC 33592): 4 µg/mL
- MRC of Of1, cefazolin (MRSA ATCC 33592 [2]; ATCC 33592): 4 µg/mL
- MRC of Of1, oxacillin (MRSA ATCC 33592 [2]; ATCC 33592, oxacillin at highest sensitive concentration): 4 µg/mL
- GI50 [6]: ~8.9 µg/mL (≈ 18.5 µM)
- cytotoxic effect against HepG2 cells (HepG2 cells): no observable cytotoxic effect
- GI50 (HeLa cells): 17.1 µg/mL (≈ 35.5 µM)
- potentiation of β-lactam antibiotics in MSSA [7]: does not show any significant potentiation effect
- MIC [8]: > 128 µg/mL

Molecule: C[C@@H](O)[C@H]1C(=O)N2C(C(=O)O)=C(S[C@@H]3CN[C@H](C(=O)N(C)C)C3)[C@H](C)[C@H]12 [meropenem]
- fold of potentiation (MRSA ATCC BAA-44 [3]; MIC / MIC (+20 μM Of1), MRSA ATCC BAA-44): 16
- MIC (+Of1) (MRSA ATCC BAA-44 [3]; MRSA ATCC BAA-44, in the presence of 20 μM Of1): 0.25 µg/mL
- MIC (MRSA ATCC BAA-44 [4]; [10]): 4 µg/mL (≈ 10.4 µM)
- MIC (MRSA ATCC 33592 [9]): 16 µg/mL
